Measurements as given in the supplement of paper PMC10307832.

Tests used:
Test in all cases: relative viability (nuclei count vs DMSO), 5 days (fraction); higher = more cells survive
[1] = test system: NCI-H1793
Summary of the method: (§1)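 Each reported value is a median over duplicate plates. It expresses relative viability: treated-well nuclei count divided by vehicle-well nuclei count. Lung cancer cell lines in 1536-well plates were dosed by pin tool a day after seeding, alone with one drug or with a fixed anchor-drug dose plus five library-drug doses (not always all listed) in √10 steps, and nuclei were counted after 5 days.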

[2] = test system: HCC-78
Summary of the method: as §1

[3] = test system: LXF-289
Summary of the method: as §1

[4] = test system: HCC-366
Summary of the method: as §1

[5] = test system: LC-2-ad
Summary of the method: as §1

[6] = test system: LCLC-97TM1
Summary of the method: as §1

[7] = test system: COR-L 105
Summary of the method: as §1

[8] = test system: SW 900
Summary of the method: as §1

[9] = test system: NCI-H358
Summary of the method: as §1

[10] = test system: NCI-H1944
Summary of the method: as §1

[11] = test system: NCI-H2085
Summary of the method: as §1

[12] = test system: NCI-H1915
Summary of the method: as §1

[13] = test system: NCI-H1755
Summary of the method: as §1

[14] = test system: HOP-62
Summary of the method: as §1

[15] = test system: LU99A
Summary of the method: as §1

[16] = test system: UMC-11
Summary of the method: as §1

[17] = test system: NCI-H2170
Summary of the method: as §1

[18] = test system: NCI-H1975
Summary of the method: as §1

[19] = test system: SK-LU-1
Summary of the method: as §1

[20] = test system: EPLC-272H
Summary of the method: as §1

[21] = test system: NCI-H460
Summary of the method: as §1

[22] = test system: A-427
Summary of the method: as §1

`C=C1C(=O)O[C@@H](CCCCCCCC)[C@@H]1C(=O)O` [C-75] + COc1cc2c(Oc3ccc(NC(=O)C4(C(=O)Nc5ccc(F)cc5)CC4)cc3F)ccnc2cc1OCCCN1CCOCC1 [Foretinib] (partner 0.25 µM) showed a relative viability ([1]; first compound 0.08 µM) of 0.572, a relative viability ([1]; first compound 0.253 µM) of 0.721 and a relative viability ([1]; first compound 0.8 µM) of 0.569. For the same compound, the relative viability ([1]; first compound 2.53 µM) was 0.46, the relative viability ([1]; first compound 8 µM) was 0.658 and the relative viability ([2]; first compound 0.08 µM) was 0.553. It also gave a relative viability ([2]; first compound 0.253 µM) of 0.554, a relative viability ([2]; first compound 0.8 µM) of 0.577 and a relative viability ([2]; first compound 2.53 µM) of 0.421. For the same compound, the relative viability ([2]; first compound 8 µM) was 0.687, the relative viability ([3]; first compound 0.08 µM) was 0.949 and the relative viability ([3]; first compound 0.253 µM) was 0.965. The relative viability ([3]; first compound 0.8 µM) was 0.932, the relative viability ([3]; first compound 2.53 µM) was 0.654 and the relative viability ([3]; first compound 8 µM) was 0.948. It also gave a relative viability ([4]; first compound 0.08 µM) of 0.909, a relative viability ([4]; first compound 0.253 µM) of 0.961 and a relative viability ([4]; first compound 0.8 µM) of 0.877. The relative viability ([4]; first compound 8 µM) was 0.845, the relative viability ([5]; first compound 0.08 µM) was 0.937 and the relative viability ([5]; first compound 0.253 µM) was 0.8. It also gave a relative viability ([5]; first compound 0.8 µM) of 0.859, a relative viability ([5]; first compound 2.53 µM) of 0.724 and a relative viability ([5]; first compound 8 µM) of 0.889. For the same compound, the relative viability ([6]; first compound 0.08 µM) was 0.934, the relative viability ([6]; first compound 0.253 µM) was 1.01 and the relative viability ([6]; first compound 0.8 µM) was 0.951. For the same compound, the relative viability ([6]; first compound 2.53 µM) was 0.847, the relative viability ([6]; first compound 8 µM) was 0.926 and the relative viability ([7]; first compound 0.08 µM) was 0.934. The relative viability ([7]; first compound 0.253 µM) was 1.17, the relative viability ([7]; first compound 0.8 µM) was 1.12 and the relative viability ([7]; first compound 2.53 µM) was 0.828. The relative viability ([7]; first compound 8 µM) was 1, the relative viability ([8]; first compound 0.08 µM) was 0.913 and the relative viability ([8]; first compound 0.253 µM) was 1.07. It also gave a relative viability ([8]; first compound 0.8 µM) of 0.842, a relative viability ([8]; first compound 2.53 µM) of 0.945 and a relative viability ([8]; first compound 8 µM) of 0.804. For the same compound, the relative viability ([9]; first compound 0.08 µM) was 0.748, the relative viability ([9]; first compound 0.253 µM) was 0.623 and the relative viability ([9]; first compound 0.8 µM) was 0.565. The relative viability ([9]; first compound 2.53 µM) was 0.595, the relative viability ([9]; first compound 8 µM) was 0.511 and the relative viability ([10]; first compound 0.08 µM) was 0.899. The relative viability ([10]; first compound 0.253 µM) was 0.756, the relative viability ([10]; first compound 0.8 µM) was 0.829 and the relative viability ([10]; first compound 8 µM) was 0.834. The relative viability ([11]; first compound 0.08 µM) was 0.842, the relative viability ([11]; first compound 0.253 µM) was 0.879 and the relative viability ([11]; first compound 0.8 µM) was 0.921. It also gave a relative viability ([11]; first compound 2.53 µM) of 0.782, a relative viability ([11]; first compound 8 µM) of 1.14 and a relative viability ([12]; first compound 0.08 µM) of 1.04. It also gave a relative viability ([12]; first compound 0.253 µM) of 1.1, a relative viability ([12]; first compound 0.8 µM) of 1.03 and a relative viability ([12]; first compound 2.53 µM) of 1.07. It also gave a relative viability ([12]; first compound 8 µM) of 1.05, a relative viability ([13]; first compound 0.08 µM) of 0.922 and a relative viability ([13]; first compound 0.253 µM) of 0.886. For the same compound, the relative viability ([13]; first compound 0.8 µM) was 0.94, the relative viability ([13]; first compound 2.53 µM) was 0.888 and the relative viability ([13]; first compound 8 µM) was 0.878. The relative viability ([14]; first compound 0.08 µM) was 1.1, the relative viability ([14]; first compound 0.253 µM) was 1.06 and the relative viability ([14]; first compound 0.8 µM) was 1.14. It also gave a relative viability ([14]; first compound 2.53 µM) of 0.966, a relative viability ([14]; first compound 8 µM) of 1.09 and a relative viability ([15]; first compound 0.08 µM) of 0.809. It also gave a relative viability ([15]; first compound 0.253 µM) of 0.71, a relative viability ([15]; first compound 0.8 µM) of 0.831 and a relative viability ([15]; first compound 2.53 µM) of 0.783. The relative viability ([15]; first compound 8 µM) was 0.63, the relative viability ([16]; first compound 0.08 µM) was 0.99 and the relative viability ([16]; first compound 0.253 µM) was 1.04. It also gave a relative viability ([16]; first compound 0.8 µM) of 0.978, a relative viability ([16]; first compound 2.53 µM) of 0.681 and a relative viability ([16]; first compound 8 µM) of 0.69. For the same compound, the relative viability ([17]; first compound 0.08 µM) was 1.06, the relative viability ([17]; first compound 0.253 µM) was 1.01 and the relative viability ([17]; first compound 0.8 µM) was 0.987. It also gave a relative viability ([17]; first compound 2.53 µM) of 0.591, a relative viability ([17]; first compound 8 µM) of 0.986 and a relative viability ([18]; first compound 0.08 µM) of 0.917. For the same compound, the relative viability ([18]; first compound 0.253 µM) was 0.834, the relative viability ([18]; first compound 0.8 µM) was 0.974 and the relative viability ([18]; first compound 2.53 µM) was 0.785. For the same compound, the relative viability ([18]; first compound 8 µM) was 0.878, the relative viability ([19]; first compound 0.08 µM) was 0.794 and the relative viability ([19]; first compound 0.253 µM) was 0.721. For the same compound, the relative viability ([19]; first compound 0.8 µM) was 0.881, the relative viability ([19]; first compound 2.53 µM) was 0.736 and the relative viability ([19]; first compound 8 µM) was 0.766. For the same compound, the relative viability ([20]; first compound 0.08 µM) was 0.686, the relative viability ([20]; first compound 0.253 µM) was 0.936 and the relative viability ([20]; first compound 0.8 µM) was 0.554. It also gave a relative viability ([20]; first compound 2.53 µM) of 0.429, a relative viability ([20]; first compound 8 µM) of 0.386 and a relative viability ([21]; first compound 0.08 µM) of 1.01. The relative viability ([21]; first compound 0.253 µM) was 1.09, the relative viability ([21]; first compound 0.8 µM) was 0.891 and the relative viability ([21]; first compound 8 µM) was 0.977. The relative viability ([22]; first compound 0.08 µM) was 0.898, the relative viability ([22]; first compound 0.253 µM) was 1.18 and the relative viability ([22]; first compound 0.8 µM) was 0.969. For the same compound, the relative viability ([22]; first compound 2.53 µM) was 1.03 and the relative viability ([22]; first compound 8 µM) was 0.992.
